Experimental data: patent publication US20110105509A1 (Wyeth, LLC, priority 2009, published 2011)

What follows are compounds tested against T1, CRTH2 (Homo sapiens, UniProt Q9Y5Y4) (assay: FRET based competitive immunoassay (cAMP) in CRTH2 expressing CHO cells). Conditions: CRTH2 expressing CHO cells incubated with forskolin and PGD2; Eu3+ cryptate-labeled anti-cAMP and d2-labeled cAMP.
T1 construct: expressed in transfected cells; host or cells: CHO cells
T1 sequence (Q9Y5Y4 1-395): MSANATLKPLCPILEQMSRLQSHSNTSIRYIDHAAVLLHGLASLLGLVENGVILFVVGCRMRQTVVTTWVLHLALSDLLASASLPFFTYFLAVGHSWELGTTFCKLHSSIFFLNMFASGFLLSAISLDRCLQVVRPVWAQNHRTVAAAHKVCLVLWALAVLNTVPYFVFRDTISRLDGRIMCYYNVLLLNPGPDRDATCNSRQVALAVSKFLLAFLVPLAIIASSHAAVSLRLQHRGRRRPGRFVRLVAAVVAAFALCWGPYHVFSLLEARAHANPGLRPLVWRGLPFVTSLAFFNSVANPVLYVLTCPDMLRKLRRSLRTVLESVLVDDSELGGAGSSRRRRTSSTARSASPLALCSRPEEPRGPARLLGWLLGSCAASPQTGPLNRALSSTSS
Format: cell-based
Protocol: FRET Assay: To evaluate potency compounds were tested in a FRET based competitive immunoassay in which CRTH2 expressing CHO cells were incubated in the presence of forskolin and PGD2 along with Eu3+ cryptate-labeled anti-cAMP and d2-labeled cAMP.

SMILES | IC50 [nM]
Cc1c(-c2nn(C)c(=O)c3ccccc23)c2cc(F)ccc2n1CC(=O)O [Example 120, 2-(5-fluoro-2-methyl-3-(3-methyl-4-oxo-3,4-dihydrophthalazin-1-yl)-1H-indol-1-yl)acetic acid] | 201
CCC(O)(CC)Cn1nc(-c2c(C)n(CC(=O)O)c3ccc(F)cc23)c2ccccc2c1=O [Example 128, 2-(3-(3-(2-ethyl-2-hydroxybutyl)-4-oxo-3,4-dihydrophthalazin-1-yl)-5-fluoro-2-methyl-1H-indol-1-yl)acetic acid] | 6
Cc1c(-c2nn(CC(C)(C)O)c(=O)c3ccccc23)c2cc(F)ccc2n1CC(=O)O [Example 129, 2-(5-fluoro-3-(3-(2-hydroxy-2-methylpropyl)-4-oxo-3,4-dihydrophthalazin-1-yl)-2-methyl-1H-indol-1-yl)acetic acid] | 136
Cc1c(-c2nn(CC(O)(C(F)(F)F)C(F)(F)F)c(=O)c3ccccc23)c2cc(F)ccc2n1CC(=O)O [Example 131, 2-(5-fluoro-2-methyl-3-(4-oxo-3-(3,3,3-trifluoro-2-hydroxy-2-(trifluoro-methyl)propyl)-3,4-dihydrophthalazin-1-yl)-1H-indol-1-yl)acetic acid] | 54
Cc1c(-c2nn(Cc3cccnc3)c(=O)c3ccccc23)c2cc(F)ccc2n1CC(=O)O [Example 135, 2-(5-fluoro-2-methyl-3-(4-oxo-3-(pyridin-3-ylmethyl)-3,4-dihydrophthalazin-1-yl)-1H-indol-1-yl)acetic acid] | 5
Cc1c(-c2nn(Cc3ccccn3)c(=O)c3ccccc23)c2cc(F)ccc2n1CC(=O)O [Example 136, 2-(5-fluoro-2-methyl-3-(4-oxo-3-(pyridin-2-ylmethyl)-3,4-dihydrophthalazin-1-yl)-1H-indol-1-yl)acetic acid] | 4
Cc1c(-c2nn(CCC(C(F)(F)F)C(F)(F)F)c(=O)c3ccccc23)c2cc(F)ccc2n1CC(=O)O [Example 137, 2-(5-fluoro-2-methyl-3-(4-oxo-3-(4,4,4-trifluoro-3-(trifluoromethyl)butyl)-3,4-dihydrophthalazin-1-yl)-1H-indol-1-yl)acetic acid] | 21
Cc1c(-c2nn(Cc3ccncc3F)c(=O)c3ccccc23)c2cc(F)ccc2n1CC(=O)O [Example 138, 2-(5-fluoro-3-(3-((3-fluoropyridin-4-yl)methyl)-4-oxo-3,4-dihydrophthalazin-1-yl)-2-methyl-1H-indol-1-yl)acetic acid] | 5
Cc1c(-c2ccc(=O)n(Cc3ccc(F)cc3)n2)c2cc(Cl)ccc2n1CC(=O)O [Example 139, 2-(5-Chloro-3-(1-(4-fluorobenzyl)-6-oxo-1,6-dihydropyridazin-3-yl)-2-methyl-1H-indol-1-yl)acetic acid] | 24
Cc1c(-c2ccc(=O)n(CCOc3ccc(Cl)cc3)n2)c2cc(Cl)ccc2n1CC(=O)O [Example 140, 2-(5-chloro-3-(1-(2-(4-chlorophenoxy)ethyl)-6-oxo-1,6-dihydropyridazin-3-yl)-2-methyl-1H-indol-1-yl)acetic acid] | 16
Cc1c(-c2ccc(=O)n(Cc3nc4ccccc4s3)n2)c2cc(Cl)ccc2n1CC(=O)O [Example 141, 2-(3-(1-(benzo[d]thiazol-2-ylmethyl)-6-oxo-1,6-dihydropyridazin-3-yl)-5-chloro-2-methyl-1H-indol-1-yl)acetic acid] | 46

Results, then the compound that gave them:

IC50 [nM] | SMILES
17 | Cc1cc(Cn2nc(-c3c(C)n(CC(=O)O)c4ccc(F)cc34)c3ccccc3c2=O)c2ccccc2n1 [Example 119, 2-(5-fluoro-2-methyl-3-(3-((2-methylquinolin-4-yl)methyl)-4-oxo-3,4-dihydro-phthalazin-1-yl)-1H-indol-1-yl)acetic acid]
55 | CCn1nc(-c2c(C)n(CC(=O)O)c3ccc(F)cc23)c2ccccc2c1=O [Example 121, 2-(3-(3-ethyl-4-oxo-3,4-dihydrophthalazin-1-yl)-5-fluoro-2-methyl-1H-indol-1-yl)acetic acid]
27 | Cc1c(-c2nn(CC3CC3)c(=O)c3ccccc23)c2cc(F)ccc2n1CC(=O)O [Example 122, 2-(3-(3-(cyclopropylmethyl)-4-oxo-3,4-dihydrophthalazin-1-yl)-5-fluoro-2-methyl-1H-indol-1-yl)acetic acid]
22 | Cc1c(-c2nn(C3CC3)c(=O)c3ccccc23)c2cc(F)ccc2n1CC(=O)O [Example 123, 2-(3-(3-cyclopropyl-4-oxo-3,4-dihydrophthalazin-1-yl)-5-fluoro-2-methyl-1H-indol-1-yl)acetic acid]
8 | Cc1c(-c2nn(CC(F)(F)F)c(=O)c3ccccc23)c2cc(F)ccc2n1CC(=O)O [Example 124, 2-(5-fluoro-2-methyl-3-(4-oxo-3-(2,2,2-trifluoroethyl)-3,4-dihydro-phthalazin-1-yl)-1H-indol-1-yl)acetic acid]
4 | Cc1c(-c2nn(CCCC(F)(F)F)c(=O)c3ccccc23)c2cc(F)ccc2n1CC(=O)O [Example 125, 2-(5-fluoro-2-methyl-3-(4-oxo-3-(4,4,4-trifluorobutyl)-3,4-dihydro-phthalazin-1-yl)-1H-indol-1-yl)acetic acid]
8 | Cc1c(-c2nn(CC(C)(C)C)c(=O)c3ccccc23)c2cc(F)ccc2n1CC(=O)O [Example 126, 2-(5-fluoro-2-methyl-3-(3-neopentyl-4-oxo-3,4-dihydrophthalazin-1-yl)-1H-indol-1-yl)acetic acid]
4 | Cc1c(-c2nn(CCC(F)(F)F)c(=O)c3ccccc23)c2cc(F)ccc2n1CC(=O)O [Example 127, 2-(5-fluoro-2-methyl-3-(4-oxo-3-(3,3,3-trifluoropropyl)-3,4-dihydro-phthalazin-1-yl)-1H-indol-1-yl)acetic acid]
> 1000 | CC(C)=CCn1nc(-c2c(C)n(CC(=O)O)c3ccc(F)cc23)c2ccccc2c1=O [Example 130, 2-(5-fluoro-2-methyl-3-(3-(3-methylbut-2-enyl)-4-oxo-3,4-dihydro-phthalazin-1-yl)-1H-indol-1-yl)acetic acid]
75 | Cc1c(-c2nn(CCC(C)(C)O)c(=O)c3ccccc23)c2cc(F)ccc2n1CC(=O)O [Example 132, 2-(5-fluoro-3-(3-(3-hydroxy-3-methylbutyl)-4-oxo-3,4-dihydrophthalazin-1-yl)-2-methyl-1H-indol-1-yl)acetic acid]
8 | CCC(=O)Cn1nc(-c2c(C)n(CC(=O)O)c3ccc(F)cc23)c2ccccc2c1=O [Example 133, 2-(5-fluoro-2-methyl-3-(4-oxo-3-(2-oxobutyl)-3,4-dihydrophthalazin-1-yl)-1H-indol-1-yl)acetic acid]
3 | Cc1c(-c2nn(Cc3ccncc3)c(=O)c3ccccc23)c2cc(F)ccc2n1CC(=O)O [Example 134, 2-(5-fluoro-2-methyl-3-(4-oxo-3-(pyridin-4-ylmethyl)-3,4-dihydrophthalazin-1-yl)-1H-indol-1-yl)acetic acid]
19 | Cc1c(-c2ccc(=O)n(Cc3ccc(F)cc3C(F)(F)F)n2)c2cc(Cl)ccc2n1CC(=O)O [Example 142, 2-(5-chloro-3-(1-(4-fluoro-2-(trifluoromethyl)benzyl)-6-oxo-1,6-dihydro-pyridazin-3-yl)-2-methyl-1H-indol-1-yl)acetic acid]
